Here are results for 39 compounds from patent US9802960B2 (MILLENNIUM PHARMACEUTICALS, INC., priority 2014, dated 2017).

Where only a bound is given, the exact number is not on record here.

In the first test the target is Human VPS34 (Homo sapiens (Human), UniProt Q8NEB9). Kind of test: Human VPS34 enzyme assay (Adapta TR-FRET). It is filed as biochemical. As to conditions: IC50 range class. (In general: TR-FRET usually uses a lanthanide donor and a delayed reading to cut background.)
Human VPS34, sequence (Q8NEB9 whole entry): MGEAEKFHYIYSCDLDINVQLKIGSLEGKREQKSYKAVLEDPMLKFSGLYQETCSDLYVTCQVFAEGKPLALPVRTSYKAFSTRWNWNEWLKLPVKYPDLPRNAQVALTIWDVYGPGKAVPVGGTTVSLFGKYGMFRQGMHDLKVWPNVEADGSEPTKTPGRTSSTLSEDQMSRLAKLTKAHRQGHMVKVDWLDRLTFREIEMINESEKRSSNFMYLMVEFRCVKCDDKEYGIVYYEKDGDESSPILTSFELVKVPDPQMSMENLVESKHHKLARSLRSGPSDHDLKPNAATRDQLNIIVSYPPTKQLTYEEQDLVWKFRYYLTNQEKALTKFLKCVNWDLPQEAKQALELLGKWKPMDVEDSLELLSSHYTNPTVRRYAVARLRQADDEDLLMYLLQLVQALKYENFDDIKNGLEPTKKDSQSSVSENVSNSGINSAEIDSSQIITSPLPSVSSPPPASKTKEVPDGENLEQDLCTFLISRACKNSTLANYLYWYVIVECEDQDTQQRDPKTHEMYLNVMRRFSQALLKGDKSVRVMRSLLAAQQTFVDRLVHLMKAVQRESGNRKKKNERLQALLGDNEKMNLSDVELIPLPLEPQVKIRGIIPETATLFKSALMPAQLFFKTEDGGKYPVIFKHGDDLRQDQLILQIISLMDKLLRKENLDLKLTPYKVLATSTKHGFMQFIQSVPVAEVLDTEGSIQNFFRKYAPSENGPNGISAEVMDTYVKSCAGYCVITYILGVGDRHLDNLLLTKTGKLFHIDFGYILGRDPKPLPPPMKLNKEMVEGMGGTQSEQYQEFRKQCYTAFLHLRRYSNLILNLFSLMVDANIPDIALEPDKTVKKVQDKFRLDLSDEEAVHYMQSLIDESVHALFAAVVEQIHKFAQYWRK
Usually IC50 stands for the concentration at which inhibition is half-maximal. Lower therefore signals inhibition by little substance. As to `CC(=O)Nc1cc(-c2cnc(N)c(NS(=O)(=O)c3ccc(F)cc3F)c2)ccn1` [Compound I-64, N-(6-amino-5-{[(2,4-difluorophenyl)sulfonyl]amino}-3,4′-bipyridin-2′-yl)acetamide], the 50% inhibitory concentration (IC50) was under 10 nM.

The test is the same for the next values; noted with them: compound concentration 1.11 μM.
For `CC(=O)Nc1cc(-c2ccnc(Nc3ccnc(C4CC4)n3)c2)cn2nccc12` [Compound I-371, N-(6-{2-[(2-cyclopropylpyrimidin-4-yl)amino]pyridin-4-yl}pyrazolo[1,5-a]pyridin-4-yl)acetamide], the “Percent Inhibition” value is reported as over 99%.

Staying with this test, now noted: compound concentration 1.11 μM; read-out: Percent Inhibition.
The inhibition is the relative decrease from the control value, in per cent. For `Cc1c(-c2ccnc(Nc3ncc(C#N)cn3)c2)cnc(Cl)c1NS(=O)(=O)c1ccc(F)cc1F` [Compound I-300, N-{6-chloro-2′-[(5-cyanopyrimidin-2-yl)amino]-4-methyl-3,4′-bipyridin-5-yl}-2,4-difluorobenzene sulfonamide], the inhibition at 1.11 µM came out at 96%. For `CC(=O)Nc1cc(-c2cnc(N)c(NS(=O)(=O)c3ccc(F)cc3F)c2)ccn1` [Compound I-64, N-(6-amino-5-{[(2,4-difluorophenyl)sulfonyl]amino}-3,4′-bipyridin-2′-yl)acetamide], the inhibition at 1.11 µM was over 99%. Consider `CC(=O)Nc1cc(-c2cnc(N)c(S(=O)(=O)NC3CCCCC3)c2)ccn1` [Compound I-101, N-[6-amino-5-(cyclohexylsulfamoyl)-3,4′-bipyridin-2′-yl]acetamide], for which the inhibition at 1.11 µM is over 99%.

Take `CC(=O)Nc1cc(-c2cnc(N)c(S(=O)(=O)O)c2)ccn1` [Compound I-122, 2′-acetamido-6-amino-3,4′-bipyridine-5-sulfonic acid]: the inhibition at 1.11 µM is over 99%. Same read-out and setting: the result for `CC(=O)Nc1cc(-c2cnc3[nH]ncc3c2)c(C)cn1` [Compound I-209, N-[5-methyl-4-(1H-pyrazolo[3,4-b]pyridin-5-yl)pyridin-2-yl]acetamide] reads 49%. The same measure, in the same setting: the result for `Cc1c(-c2ccnc(Nc3ccnc(C4CC4)n3)c2)cnc(Cl)c1NS(=O)(=O)N(C)C` [Compound I-435, N′-{6-chloro-2′-[(2-cyclopropylpyrimidin-4-yl)amino]-4-methyl-3,4′-bipyridin-5-yl}-N,N-dimethylsulfuric diamide] reads 96%; that for `CC(=O)Nc1cc(-c2cnc(C)c(OCC3CC3)c2)ccn1` [Compound I-492, N-[5-(cyclopropylmethoxy)-6-methyl-3,4′-bipyridin-2′-yl]acetamide], 86%; that for `CC(=O)Nc1cc(-c2cnc(C)c(N(CC3CC3)S(=O)(=O)C3CC3)c2)ccn1` [Compound I-83, N-{5-[(cyclopropylmethyl)(cyclopropylsulfonyl)amino]-6-methyl-3,4′-bipyridin-2′-yl}acetamide], 82%. Regarding `CN(C(=O)c1cc(-c2ccnc(Nc3ccncn3)c2)cnc1N)C12CC(C1)C2` [Compound I-303, 6-amino-N-(bicyclo[1.1.1]pent-1-yl)-N-methyl-2′-(pyrimidin-4-ylamino)-3,4′-bipyridine-5-carboxamide], the inhibition at 1.11 µM is 95%.

`CC(=O)Nc1cc(-c2cncc(S(=O)(=O)N3CCN(C)CC3)c2)ccn1` [Compound I-481, N-{5-[(4-methylpiperazin-1-yl)sulfonyl]-3,4′-bipyridin-2′-yl}acetamide]: the inhibition at 1.11 µM was over 99%.

`COC(=O)Nc1cc(-c2cnc(C)c(NS(=O)(=O)N(C)C)c2)ccn1` [Compound I-241, methyl {5-[(dimethylsulfamoyl)amino]-6-methyl-3,4′-bipyridin-2′-yl}carbamate]: the inhibition at 1.11 µM was found to be 96%. The same measure, in the same setting: the result for `CC(=O)Nc1cc(-c2cnc(C)c(NS(=O)(=O)N3CCOCC3)c2)ccn1` [Compound I-447, N-{6-methyl-5-[(morpholin-4-ylsulfonyl)amino]-3,4′-bipyridin-2′-yl}acetamide] reads 98%. Turning to `CC(=O)Nc1cc(-c2cnc(N)c(C(=O)NC3CCOCC3)c2)ccn1` [Compound I-210, 2′-acetamido-6-amino-N-(tetrahydro-2H-pyran-4-yl)-3,4′-bipyridine-5-carboxamide], the inhibition at 1.11 µM was over 99%. As to `Cc1nccc(Nc2cc(-c3cncc(C(C)Oc4ccccc4F)c3)ccn2)n1` (stereo not shown) [Compound I-422, 5-[1-(2-fluorophenoxy)ethyl]-N-(2-methylpyrimidin-4-yl)-3,4′-bipyridin-2′-amine], the inhibition at 1.11 µM is 96%. As for `CC(=O)Nc1cc(-c2cnc(N)c(S(=O)(=O)N(C)Cc3ccccc3)c2)ccn1` [Compound I-76], the inhibition at 1.11 µM is over 99%. The same measure, in the same setting: the result for `CNc1ncc(-c2ccnc(NC(C)=O)c2)cc1S(=O)(=O)Nc1ccccc1` [Compound I-100, N-[6-(methylamino)-5-(phenylsulfamoyl)-3,4′-bipyridin-2′-yl]acetamide] reads over 99%; that for `CC(=O)Nc1cc(-c2cnc3ncn(CC4CC4)c3c2)ccn1` [Compound I-135, N-{4-[1-(cyclopropylmethyl)-1H-imidazo[4,5-b]pyridin-6-yl]pyridin-2-yl}acetamide], 99%; that for `CC(=O)Nc1cc(-c2cncc(S(=O)(=O)NCc3ccccc3)c2)ccn1` [Compound I-321, N-[5-(benzylsulfamoyl)-3,4′-bipyridin-2′-yl]acetamide], over 99%. The same measure, in the same setting: the result for `COc1ncc(-c2ccnc(Nc3ccnc(C)n3)c2)cc1C(=O)N(C)c1ccc(F)cc1F` [Compound I-252, N-(2,4-difluorophenyl)-6-methoxy-N-methyl-2′-[(2-methylpyrimidin-4-yl)amino]-3,4′-bipyridine-5-carboxamide] reads over 99%; that for `CC(=O)Nc1cc(-c2cnc(N)c(S(=O)(=O)N3CCOCC3)c2)ccn1` [Compound I-24, N-[6-amino-5-(morpholin-4-ylsulfonyl)-3,4′-bipyridin-2′-yl]acetamide], over 99%. Same read-out and setting: the result for `Cc1ncc(-c2ccnc(Nc3ccnc(C(F)(F)F)n3)c2)cc1NS(=O)(=O)c1ccc(F)cc1F` [Compound I-237, 2,4-difluoro-N-(6-methyl-2′-{[2-(trifluoromethyl)pyrimidin-4-yl]amino}-3,4′-bipyridin-5-yl)benzenesulfonamide] reads 91%.

In the case of `COc1ccccc1S(=O)(=O)Nc1cc(-c2ccnc(NC(C)=O)c2)cnc1C` [Compound I-74, N-(5-{[(2-methoxyphenyl)sulfonyl]amino}-6-methyl-3,4′-bipyridin-2′-yl)acetamide], the inhibition at 1.11 µM was over 99%. The same measure, in the same setting: the result for `CC(=O)Nc1cc(-c2cncc(N(C)S(C)(=O)=O)c2)ccn1` [Compound I-20, N-{5-[methyl(methylsulfonyl)amino]-3,4′-bipyridin-2′-yl}acetamide] reads over 99%; that for `COc1ncc(-c2ccnc(NC(C)=O)c2)c(C)c1NS(=O)(=O)N(C)C` [Compound I-268, N-{5-[(dimethylsulfamoyl)amino]-6-methoxy-4-methyl-3,4′-bipyridin-2′-yl}acetamide], 100%; that for `CC(=O)Nc1cc(-c2cnc(C)c(S(=O)(=O)NC34CC(C3)C4)c2)ccn1` [Compound I-418, N-[5-(bicyclo[1.1.1]pent-1-ylsulfamoyl)-6-methyl-3,4′-bipyridin-2′-yl]acetamide], over 99%. For the compound `CC(=O)Nc1cc(-c2cnc(C)c(NS(=O)(=O)c3ccccc3Cl)c2)ccn1` [Compound I-109, N-(5-{[(2-chlorophenyl)sulfonyl]amino}-6-methyl-3,4′-bipyridin-2′-yl)acetamide], the inhibition at 1.11 µM is over 99%.

In the case of `CC(=O)Nc1cc(-c2cnc(C)c(N(C)S(C)(=O)=O)c2)ccn1` [Compound I-96, N-{6-methyl-5-[methyl(methylsulfonyl)amino]-3,4′-bipyridin-2′-yl}acetamide], the inhibition at 1.11 µM was over 99%. On the same count and under the same terms, the result for `CC(=O)Nc1cc(-c2cnc(Cl)c(C(=O)N(C)C)c2)ccn1` [Compound I-213, 2′-acetamido-6-chloro-N,N-dimethyl-3,4′-bipyridine-5-carboxamide] reads over 99%.

For the compound `CCN(CC)S(=O)(=O)c1cncc(-c2ccnc(NC(C)=O)c2)c1` [Compound I-120, N-[5-(diethylsulfamoyl)-3,4′-bipyridin-2′-yl]acetamide], the inhibition at 1.11 µM was over 99%. Same read-out and setting: the result for `CC(=O)Nc1cc(-c2cnc(N)c(C(=O)N(C)C)c2)ccn1` [Compound I-149, 2′-acetamido-6-amino-N,N-dimethyl-3,4′-bipyridine-5-carboxamide] reads over 99%. Still for that read-out and setting: the result for `Cc1nccc(Nc2cc(-c3cnc(C)c(OCCO)c3)ccn2)n1` [Compound I-424, 2-({6-methyl-2′-[(2-methylpyrimidin-4-yl)amino]-3,4′-bipyridin-5-yl}oxy)ethanol] reads over 99%. Regarding `CC(=O)Nc1cc(-c2ccnc(Nc3ccnc(C)n3)c2)cn2nccc12` [Compound I-450, N-(6-{2-[(2-methylpyrimidin-4-34)amino]pyridin-4-yl}pyrazolo[1,5-a]pyridin-4-yl)acetamide], the inhibition at 1.11 µM came out at 87%. With `Cc1ncc(-c2ccnc(Nc3cnccn3)c2)cc1NS(=O)(=O)c1ccc(F)cc1F` [Compound I-310, 2,4-difluoro-N-[6-methyl-2′-(pyrazin-2-ylamino)-3,4′-bipyridin-5-yl]benzenesulfonamide], the inhibition at 1.11 µM is over 99%.

With `CC(=O)Nc1cc(-c2cnc(Cl)c(NS(=O)(=O)c3ccc(F)cc3F)c2C)c(C)cn1` [Compound I-250, N-(6-chloro-5-{[(2,4-difluorophenyl)sulfonyl]amino}-4,5′-dimethyl-3,4′-bipyridin-2′-yl)acetamide], the inhibition at 1.11 µM worked out at 99%. On the same count and under the same terms, the result for `COc1cc(C)ccc1S(=O)(=O)Nc1cc(-c2ccnc(NC(C)=O)c2)cnc1C` [Compound I-142, N-(5-{[(2-methoxy-4-methylphenyl)sulfonyl]amino}-6-methyl-3,4′-bipyridin-2′-yl)acetamide] reads over 99%; that for `CC(=O)Nc1cc(-c2cncc(N(C)S(=O)(=O)N(C)C)c2)ccn1` [Compound I-458, N-{5-[(dimethylsulfamoyl)(methyl)amino]-3,4′-bipyridin-2′-yl}acetamide], over 99%; that for `CC(=O)Nc1cc(-c2cncc(S(=O)(=O)NC3CC3)c2)ccn1` [Compound I-338, N-[5-(cyclopropylsulfamoyl)-3,4′-bipyridin-2′-yl]acetamide], over 99%.

For `Cc1ncc(-c2ccnc(Nc3ccnc(C(F)(F)F)n3)c2)cc1C(=O)N1CCC1` [Compound I-292, azetidin-1-yl(6-methyl-2′-{[2-(trifluoromethyl)pyrimidin-4-yl]amino}-3,4′-bipyridin-5-yl)methanone], the inhibition at 1.11 µM came out at 99%.
